Measured values published in patent US9073915B2, “Substituted pyrimidone derivatives” (SANOFI, priority 2008, dated 2015).
Counter-ions that a name gives are not always drawn.

Assays:
GSK3β = GSK3β (Homo sapiens, UniProt P49841); assay: Inhibitory activity against GSK3β (33P-ATP phosphorylation of prephosphorylated GS1 peptide, filter assay); assay type: biochemical; details: protocol 3: 7.5 μM GS1 peptide, 10 μM ATP, 50 mM Hepes pH 7.2, one hour at room temperature
Protocol: Four different protocols can be used. […]
The reaction was stopped with 100 microliters of a solution made of 25 g polyphosphoric acid (85% P2O5), 126 ml 85% H3PO4, H2O to 500 ml and then diluted to 1:100 before use. […] Incorporated ^33P radioactivity was determined by liquid scintillation spectrometry. […]

GSK3β, sequence (P49841 whole entry): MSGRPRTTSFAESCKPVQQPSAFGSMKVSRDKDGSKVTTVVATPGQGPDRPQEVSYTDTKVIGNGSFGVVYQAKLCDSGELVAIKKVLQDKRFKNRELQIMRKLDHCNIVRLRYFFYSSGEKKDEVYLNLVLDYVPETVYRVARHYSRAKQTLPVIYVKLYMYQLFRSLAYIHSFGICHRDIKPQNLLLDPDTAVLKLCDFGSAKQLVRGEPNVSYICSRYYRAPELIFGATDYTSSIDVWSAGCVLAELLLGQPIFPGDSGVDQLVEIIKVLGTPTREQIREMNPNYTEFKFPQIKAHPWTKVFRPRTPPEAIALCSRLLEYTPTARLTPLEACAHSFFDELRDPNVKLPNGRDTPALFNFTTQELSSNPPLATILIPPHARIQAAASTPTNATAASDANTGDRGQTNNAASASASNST

SMILES	melting point [°C]	IC50 (GSK3β) [µM]
COc1ccccc1CCc1cccn2c(=O)cc(-c3ccncc3)nc12 (as salt: hydrochloride) [compound 7, 9-[2-(2-Methoxy-phenyl)-ethyl]-2-pyridin-4-yl-pyrido[1,2-a]pyrimidin-4-one]	220 to 224	
O=c1cc(-c2ccncc2)nc2cc(-c3ccccc3)ccn12 (as salt: salt) [Compound No. 4, 8-Phenyl-2-pyridin-4-yl-pyrido[1,2-a]pyrimidin-4-one]	261 to 262	
O=c1cc(-c2ccncc2)nc2cc(-c3ccccc3)ccn12 [Compound No. 4, 8-Phenyl-2-pyridin-4-yl-pyrido[1,2-a]pyrimidin-4-one]		0.49
COc1ccccc1CCc1cccn2c(=O)cc(-c3ccncc3)nc12 [compound 7, 9-[2-(2-Methoxy-phenyl)-ethyl]-2-pyridin-4-yl-pyrido[1,2-a]pyrimidin-4-one]		0.03
